These results are taken from US8748426B2, “Inhibitors of diacylglycerol acyl transferase” (Piramal Enterprises Limited, priority 2009, dated 2014).

One test concerns the target T1, hDGAT1 (Homo sapiens, UniProt O75907).
T1 sequence (O75907 1-488): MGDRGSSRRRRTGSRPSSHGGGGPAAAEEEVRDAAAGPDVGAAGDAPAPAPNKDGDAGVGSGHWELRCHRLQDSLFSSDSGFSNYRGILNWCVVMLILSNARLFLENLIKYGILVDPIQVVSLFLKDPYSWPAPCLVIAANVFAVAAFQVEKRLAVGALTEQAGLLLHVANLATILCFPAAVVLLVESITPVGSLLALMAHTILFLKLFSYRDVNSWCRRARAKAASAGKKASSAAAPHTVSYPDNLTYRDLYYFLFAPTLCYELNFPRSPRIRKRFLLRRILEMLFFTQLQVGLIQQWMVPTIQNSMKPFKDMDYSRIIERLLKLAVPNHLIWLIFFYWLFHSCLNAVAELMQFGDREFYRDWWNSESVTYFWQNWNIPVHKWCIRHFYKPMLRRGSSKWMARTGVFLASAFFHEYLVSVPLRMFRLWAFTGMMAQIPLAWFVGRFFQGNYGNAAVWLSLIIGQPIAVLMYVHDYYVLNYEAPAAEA
Briefly: In-vitro DGAT1 assay (14C oleoyl CoA, hDGAT1 microsomes from Sf9 cells). The following applies: for inhibition at 1 µM: read-out: % Inhibition of hDGAT1; for % Inhibition of hDGAT1: at 1 μM.

The subject of a further test is Swiss mice. Description: Fat tolerance test (ftt) in mice. The format is in vivo. To be noted: 3 mg/kg, p.o.; olive oil load 10 mL/kg 30 min after treatment; AUC0-4h, vehicle group as 100%. Here is the method:
Swiss mice of age 4-5 weeks and body weight between 25-30 g were selected for study. After fasting for about 16 h, the animals were divided into three groups based on plasma triglyceride level with same mean and variation. Animals were administered with either vehicle [(1% tween 80 in 0.5% carboxy methylcellulose (CMC)]) or with compounds of the present invention (3 mg/kg, p.o.). Compounds of the present invention were prepared as suspension in 0.5% carboxy methylcellulose (CMC) with 1% tween 80. Olive oil (fat) load (10 mL/kg, p.o.) was given, 30 min after the treatment. Blood samples were collected at 1, 2, 3 and 4 h after the fat (olive oil) load. Plasma was separated and triglyceride level was measured using commercially available kits (diasys, Germany). Percentage reduction in area under curve (AUC0-4h) of the test compound was calculated by taking AUC0-4h of the vehicle group as 100%.

Where only a bound is given, the exact number is not on record here.

Turning to `CC(C)[C@@H](C(=O)O)N1Cc2ccc(-c3ccc(NC(=O)c4ccc(C(C)(C)C)cc4)cc3)cc2C1=O` [Example 116, (S)-2-(6-(4-(4-tert-Butylbenzamido)phenyl)-1-oxoisoindolin-2-yl)-3-methyl butanoic acid], at hDGAT1, the inhibition (as a rule, the change of the read-out against control, counted positive when it falls) at 1 µM was more than 50%. In addition, the “% Reduction (Plasma triglyceride)” value in the test with Swiss mice is reported as “++ (>50% Reduction)”.
On to `CC(C)[C@@H](C(=O)O)N1Cc2ccc(-c3ccc(NC(=O)c4ccc(-c5ccccc5)cc4)cc3)cc2C1=O` [Example 120, (S)-2-(6-(4-Biphenyl-4-ylcarboxamidophenyl)-1-oxoisoindolin-2-yl)-3-methyl butanoic acid], for which the “% Inhibition of hDGAT1” value on hDGAT1 is given as “++ (>50% Inhibition)”. In addition, the “% Reduction (Plasma triglyceride)” value in the test with Swiss mice was “++ (>50% Reduction)”.
For the molecule `CC(C)[C@@H](C(=O)O)N1Cc2ccc(-c3ccc(NC(=O)c4cc(-c5ccc(Cl)cc5)no4)cc3)cc2C1=O` [Example 618, (S)-2-(6-(4-(3-(4-Chlorophenyl)isoxazole-5-carboxamido)phenyl)-1-oxoisoindolin-2-yl)-3-methylbutanoic acid], the inhibition at 1 µM on hDGAT1 is more than 50%.
Still for that read-out and setting: the result for `CC(C)[C@@H](C(=O)O)N1Cc2ccc(-c3ccc(NC(=O)c4cc(-c5ccc(C(F)(F)F)cc5)no4)cc3)cc2C1=O` [Example 620, (S)-3-Methyl-2-(1-oxo-6-(4-(3-(4-(trifluoromethyl)phenyl)isoxazole-5-carboxamido)phenyl)isoindolin-2-yl)butanoic acid] reads more than 50%; that for `CC(C)[C@@H](C(=O)O)N1Cc2ccc(-c3ccc(NC(=O)c4ccc(-c5cnco5)cc4)cc3)cc2C1=O` [Example 622, (S)-3-Methyl-2-(6-(4-(4-(oxazol-5-yl)benzamido)phenyl)-1-oxoisoindolin-2-yl)butanoic acid], more than 50%.
On the same count and under the same terms, the result for `CC(C)[C@@H](C(=O)O)N1Cc2ccc(-c3ccc(NC(=O)c4nc(-c5ccccc5)cs4)cc3)cc2C1=O` [Example 624, (S)-3-Methyl-2-(1-oxo-6-(4-(4-phenylthiazole-2-carboxamido)phenyl)isoindolin-2-yl)butanoic acid] reads more than 50%; that for `CC(C)[C@@H](C(=O)O)N1Cc2ccc(-c3ccc(NC(=O)c4nnc(-c5ccccc5)s4)cc3)cc2C1=O` [Example 627, (S)-3-Methyl-2-(1-oxo-6-(4-(5-phenyl-1,3,4-thiadiazole-2-carboxamido)phenyl)isoindolin-2-yl)butanoic acid], more than 50%; that for `CC(C)[C@@H](C(=O)O)N1Cc2ccc(-c3ccc(NC(=O)c4nnc(-c5ccccc5)[nH]4)cc3)cc2C1=O` [Example 629, (S)-3-Methyl-2-(1-oxo-6-(4-(5-phenyl-4H-1,2,4-triazole-3-carboxamido)phenyl)isoindolin-2-yl)butanoic acid], 10 to 50%.
Turning to `CC(C)[C@@H](C(=O)O)N1Cc2ccc(-c3ccc(NC(=O)c4ccc(C(C)(C)C#N)cc4)cc3)cc2C1=O` [Example 631, (S)-2-(6-(4-(4-(2-Cyanopropan-2-yl)benzamido)phenyl)-1-oxoisoindolin-2-yl)-3-methylbutanoic acid], on hDGAT1, the inhibition at 1 µM was more than 50%.
As to `CCC(C#N)(CC)c1ccc(C(=O)Nc2ccc(-c3ccc4c(c3)C(=O)N([C@H](C(=O)O)C(C)C)C4)cc2)cc1` [Example 633, (S)-2-(6-(4-(4-(3-Cyanopentan-3-yl)benzamido)phenyl)-1-oxoisoindolin-2-yl)-3-methylbutanoic acid], the inhibition at 1 µM on hDGAT1 is more than 50%.
The same measure, in the same setting: the result for `CC(C)[C@@H](C(=O)O)N1Cc2ccc(-c3ccc(NC(=O)c4ncc(-c5ccccc5)o4)cn3)cc2C1=O` [Example 635, (S)-3-Methyl-2-(1-oxo-6-(5-(5-phenyloxazole-2-carboxamido)pyridin-2-yl)isoindolin-2-yl)butanoic acid] reads more than 50%; that for `CC(C)[C@@H](C(=O)O)N1Cc2ccc(-c3ccc(NC(=O)c4ncc(-c5ccccc5)s4)cn3)cc2C1=O` [Example 637, (S)-3-Methyl-2-(1-oxo-6-(5-(5-phenylthiazole-2-carboxamido)pyridin-2-yl)isoindolin-2-yl)butanoic acid], more than 50%; that for `CC(C)[C@@H](C(=O)O)N1Cc2ccc(-c3ccc(NC(=O)c4cc(-c5ccc(F)cc5)no4)cn3)cc2C1=O` [Example 639, (S)-2-(6-(5-(3-(4-Fluorophenyl)isoxazole-5-carboxamido)pyridin-2-yl)-1-oxoisoindolin-2-yl)-3-methylbutanoic acid], more than 50%.
With `Cc1oc(-c2ccccc2)nc1C(=O)Nc1ccc(-c2ccc3c(c2)C(=O)N([C@H](C(=O)O)C(C)C)C3)cc1` [Example 643, (S)-3-Methyl-2-(6-(4-(5-methyl-2-phenyloxazole-4-carboxamido)phenyl)-1-oxoisoindolin-2-yl)butanoic acid], at hDGAT1, the inhibition at 1 µM is more than 50%.
Same read-out and setting: then `CC(C)[C@@H](C(=O)O)N1Cc2ccc(-c3ccc(NC(=O)c4ccc(-c5nccs5)cc4)cc3)cc2C1=O` [Example 647, (S)-3-Methyl-2-(1-oxo-6-(4-(4-(thiazol-2-yl)benzamido)phenyl)isoindolin-2-yl)butanoic acid], with more than 50%; and `CCCCc1ccc(C(=O)Nc2ccc(-c3ccc4c(c3)C(=O)N([C@H](C(=O)O)C(C)C)C4)cc2)nc1` [Example 649, (S)-2-(6-(4-(5-Butylpicolinamido)phenyl)-1-oxoisoindolin-2-yl)-3-methylbutanoic acid], with more than 50%.
Regarding `CC(C)[C@@H](C(=O)O)N1Cc2ccc(-c3ccc(NC(=O)c4cnc5ccccc5c4)cc3)cc2C1=O` [Example 651], the “% Inhibition of hDGAT1” value at hDGAT1 was “+ (10-50% Inhibition)”.
Regarding `CC(C)[C@@H](C(=O)O)N1Cc2ccc(-c3ccc(NC(=O)c4ccc(-c5cncnc5)cc4)cc3)cc2C1=O` [Example 653, (S)-3-Methyl-2-(1-oxo-6-(4-(4-(pyrimidin-5-yl)benzamido)phenyl)isoindolin-2-yl)butanoic acid], the inhibition at 1 µM at hDGAT1 is 10 to 50%.
On the same count and under the same terms, then `Cc1oc(-c2ccccc2)nc1C(=O)Nc1ccc(-c2ccc3c(c2)C(=O)N([C@H](C(=O)O)C(C)C)C3)nc1` [Example 655, (S)-3-Methyl-2-(6-(5-(5-methyl-2-phenyloxazole-4-carboxamido)pyridin-2-yl)-1-oxoisoindolin-2-yl)butanoic acid], with more than 50%; and `CC(C)[C@@H](C(=O)O)N1Cc2ccc(-c3ccc(NC(=O)c4nc(-c5ccccc5)oc4C(F)(F)F)cn3)cc2C1=O` [Example 657, (S)-3-Methyl-2-(1-oxo-6-(5-(2-phenyl-5-(trifluoromethyl)oxazole-4-carboxamido)pyridin-2-yl)isoindolin-2-yl)butanoic acid], with more than 50%; and `CC(C)[C@@H](C(=O)O)N1Cc2ccc(-c3ccc(NC(=O)Cc4ccccc4)cc3)cc2C1=O` [Example 659, (S)-3-Methyl-2-(1-oxo-6-(4-(2-phenylacetamido)phenyl)isoindolin-2-yl)butanoic acid], with 10 to 50%.
Consider “(S)-2-(5-(4-(3-(2-Fluorophenyl)thioureido)phenyl)-1-oxoisoindolin-2-yl)-3-methylbutanoic acid [Example 257]”, for which, at hDGAT1, the “% Inhibition of hDGAT1” value is “+ (10-50% Inhibition)”.
